Experimental data as given in patent US10604512B2, “3-(1H-indol-2-yl)-1H-indazoles and therapeutic uses thereof” (Samumed, LLC, priority 2015, dated 2020).

Columns and labels:
Type in all cases: cell-based
[1] = tested on: Primary human fibroblasts derived from IPF patients (LL29 cells) treated with TGF-β1; experiment: Inhibition of the fibrotic process: αSMA staining in TGF-β1-treated primary human fibroblasts from IPF patients (LL29 cells); settings: Fibroblast, 96 h; for EC50: % αSMA-positive LL29 cells, TGF-β1 20 ng/mL, 4 days; for inhibition at 10 µM: given where EC50 >10 μM, αSMA, LL29 cells, TGF-β1, 4 days, read-out: percent inhibition at 10 μM
Method in brief: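 LL29 IPF-patient fibroblasts in 1% FBS stimulated with TGF-β1 (20 ng/mL) and compound (10 μM–1.87 nM, 0.1% DMSO) for 4 days at 37 °C. SYTOX-positive cells excluded; % αSMA-positive cells imaged, normalized to TGF-β1/DMSO wells; EC50 by nonlinear regression, else % inhibition at 10 μM.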

SW480 colon cancer cells = experiment: Cell viability assay (CellTiter-Blue) in SW480 colon cancer cells; settings: Homo sapiens, 96 h, four days; for EC50: CellTiter-Blue; for inhibition at 10 µM: given where EC50 >10 μM, read-out: percent inhibition at 10 μM
Method in brief: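 Four-day viability readout in SW480 cells: compound at 0.0045–10 μM (1:3 series), DMSO controls in eight replicates, CellTiter-Blue fluorescence after ~3 h. Values are regression-derived EC50s, or percent inhibition at 10 μM when EC50 exceeds 10 μM.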

IL-6 = experiment: Inhibition of IL-6 in LPS-stimulated THP-1 human monocyte cells (HTRF); settings: for EC50: IL-6 inhibition, LPS-stimulated THP-1 cells, HTRF; for inhibition at 10 µM: THP-1, printed beside >10 μM EC50, top concentration 10 μM, meaning not given, read-out: percentage in parentheses after EC50 >10
Method in brief: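 THP-1 cells serum-reduced (1% FBS, 24 h), then 5000 cells/well preincubated 2 h with compound (10-point 1:3 series from 10 μM, 0.1% DMSO) before 500 ng/mL LPS for 22 h at 37 °C. Secreted IL-6 quantified by HTRF 665/620 ratio; DMSO-normalised duplicates fitted to four-parameter EC50; above 10 μM, % inhibition at 10 μM given.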

SMILES	EC50 [1] [nM]	EC50 (SW480 colon cancer cells) [nM]	EC50 (IL-6) [nM]	inhibition at 10 µM [1] [%]	inhibition at 10 µM (IL-6) [%]	inhibition at 10 µM (SW480 colon cancer cells) [%]
CS(=O)(=O)NCc1cc(F)cc(-c2cccc3[nH]c(-c4n[nH]c5ccc(-c6cncnc6)cc45)cc23)c1 [Compound 503, N-(3-Fluoro-5-(2-(5-(pyrimidin-5-yl)-1H-indazol-3-yl)-1H-indol-4-yl)benzyl) methanesulfonamide]	311	3170	910	–	–	–
CC(C)CC(=O)Nc1cncc(-c2ccc3[nH]nc(-c4cc5ncccc5[nH]4)c3c2)c1 [Compound 506, N-(5-(3-(1H-Pyrrolo[3,2-b]pyridin-2-yl)-1H-indazol-5-yl)pyridin-3-yl)-3-methylbutanamide]	> 10000	486	102	24.2	–	–
O=C(Nc1cncc(-c2ccc3[nH]nc(-c4cc5ncccc5[nH]4)c3c2)c1)c1ccccc1 [Compound 515, N-(5-(3-(1H-Pyrrolo[3,2-b]pyridin-2-yl)-1H-indazol-5-yl)pyridin-3-yl) benzamide]	> 10000	1090	270	0	–	–
c1cnc2cc(-c3n[nH]c4ccc(-c5cncc(CN6CCCCC6)c5)cc34)[nH]c2c1 [Compound 519, 5-(5-(Piperidin-1-ylmethyl)pyridin-3-yl)-3-(1H-pyrrolo[3,2-b]pyridin-2-yl)-1H-indazole]	> 10000	106	97	25.4	–	–
O=C(Nc1cncc(-c2ccc3[nH]nc(-c4cc5ncccc5[nH]4)c3c2)c1)C1CCC1 [Compound 525, N-(5-(3-(1H-Pyrrolo[3,2-b]pyridin-2-yl)-1H-indazol-5-yl)pyridin-3-yl) cyclobutanecarboxamide]	> 10000	547	24	29.4	–	–
Fc1cccc(-c2cccc3[nH]c(-c4n[nH]c5ccc(C6CCNCC6)cc45)cc23)c1 [Compound 533, 3-(4-(3-Fluorophenyl)-1H-indol-2-yl)-5-(piperidin-4-yl)-1H-indazole]	> 10000	3840	2800	0	–	–
Fc1ccc(-c2cccc3[nH]c(-c4n[nH]c5ccc(C6=CCNCC6)cc45)cc23)cc1 [Compound 550, 3-(4-(4-Fluorophenyl)-1H-indol-2-yl)-5-(1,2,3,6-tetrahydropyridin-4-yl)-1H-indazole]	> 10000	3900	> 10000	41.7	33.7	–
Cc1ncc(-c2ccc3[nH]nc(-c4cc5c(-c6ccncc6)cccc5[nH]4)c3c2)n1C [Compound 601, 5-(1,2-Dimethyl-1H-imidazol-5-yl)-3-(4-(pyridin-4-yl)-1H-indol-2-yl)-1H-indazole]	4190	5960	4170	–	–	–
c1cc(N2CCCCC2)c2cc(-c3n[nH]c4ccc(-c5cncc(OC6CCCCC6)c5)cc34)[nH]c2c1 [Compound 635, 5-(5-(Cyclohexyloxy)pyridin-3-yl)-3-(4-(piperidin-1-yl)-1H-indol-2-yl)-1H-indazole]	2410	> 10000	> 10000	–	22.6	45.7
CN1CCN(c2cccc3[nH]c(-c4n[nH]c5ccc(-c6cncc(NC(=O)CC7CCNCC7)c6)cc45)cc23)CC1 [Compound 669, N-(5-(3-(4-(4-Methylpiperazin-1-yl)-1H-indol-2-yl)-1H-indazol-5-yl)pyridin-3-yl)-2-(piperidin-4-yl)acetamide]	> 10000	> 10000	> 10000	17.7	25.3	12.2
c1ccc2[nH]c(-c3n[nH]c4ccc(-c5cncc(OCCN6CCCC6)c5)cc34)cc2c1 [Compound 686, 3-(1H-Indol-2-yl)-5-(5-(2-(pyrrolidin-1-yl)ethoxy)pyridin-3-yl)-1H-indazole]	7390	574	208	–	–	–
c1cc(-c2ccoc2)c2cc(-c3n[nH]c4ccc(-c5cncc(OC6CCNCC6)c5)cc34)[nH]c2c1 [Compound 716, 3-(4-(Furan-3-yl)-1H-indol-2-yl)-5-(5-(piperidin-4-yloxy)pyridin-3-yl)-1H-indazole]	9990	2180	> 10000	–	25.5	–
